Measured values as given in ChEMBL document CHEMBL1142535, “Rational design and synthesis of 4-((1R,2R)-2-hydroxycyclohexyl)-2(trifluoromethyl)benzonitrile (PF-998425), a novel, nonsteroidal androgen receptor antagonist devoid of phototoxicity for dermatological indications” (J Med Chem, 2008).
Calls of active or inactive are those of the source. The rule behind the calls is not given here.

Experiments:
[1] = tested on: Syrian golden hamster; assay: Reduction of sebum ester production in golden syrian hamster ear topically dosed at 3% twice daily 5 days per week for two weeks; assay type: functional, Mesocricetus auratus; parameters: scale not given: the % may be the effect or the level left
[2] = target: T1, Progesterone receptor (Homo sapiens, UniProt P06401); assay: Inhibition of progesterone receptor
T1 sequence (P06401 whole entry): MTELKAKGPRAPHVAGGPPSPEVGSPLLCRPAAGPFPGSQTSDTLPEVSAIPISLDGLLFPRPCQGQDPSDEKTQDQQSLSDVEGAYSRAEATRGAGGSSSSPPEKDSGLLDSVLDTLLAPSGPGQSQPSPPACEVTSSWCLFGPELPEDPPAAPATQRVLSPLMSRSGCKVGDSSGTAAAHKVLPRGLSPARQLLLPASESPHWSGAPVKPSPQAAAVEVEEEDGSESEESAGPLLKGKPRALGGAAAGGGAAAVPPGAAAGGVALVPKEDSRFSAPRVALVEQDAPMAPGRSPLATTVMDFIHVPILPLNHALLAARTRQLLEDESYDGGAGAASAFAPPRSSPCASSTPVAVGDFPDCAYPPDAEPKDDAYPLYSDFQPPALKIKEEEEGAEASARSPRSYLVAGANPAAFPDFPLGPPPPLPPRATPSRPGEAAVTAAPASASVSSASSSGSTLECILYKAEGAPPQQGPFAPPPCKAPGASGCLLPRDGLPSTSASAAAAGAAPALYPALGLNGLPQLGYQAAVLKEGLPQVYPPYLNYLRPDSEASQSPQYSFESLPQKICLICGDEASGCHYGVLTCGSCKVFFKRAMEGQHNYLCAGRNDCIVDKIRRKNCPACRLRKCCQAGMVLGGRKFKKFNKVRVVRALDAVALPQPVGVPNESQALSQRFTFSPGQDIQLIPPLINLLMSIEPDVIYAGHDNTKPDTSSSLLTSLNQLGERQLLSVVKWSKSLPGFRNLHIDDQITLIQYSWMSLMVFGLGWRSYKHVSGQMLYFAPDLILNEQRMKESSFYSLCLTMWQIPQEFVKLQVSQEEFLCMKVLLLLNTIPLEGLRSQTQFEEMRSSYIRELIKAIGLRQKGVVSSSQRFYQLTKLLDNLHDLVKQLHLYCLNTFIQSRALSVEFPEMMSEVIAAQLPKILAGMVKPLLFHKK

[3] = target: T2, Androgen receptor (Homo sapiens, UniProt P10275)
T2 sequence (P10275 whole entry): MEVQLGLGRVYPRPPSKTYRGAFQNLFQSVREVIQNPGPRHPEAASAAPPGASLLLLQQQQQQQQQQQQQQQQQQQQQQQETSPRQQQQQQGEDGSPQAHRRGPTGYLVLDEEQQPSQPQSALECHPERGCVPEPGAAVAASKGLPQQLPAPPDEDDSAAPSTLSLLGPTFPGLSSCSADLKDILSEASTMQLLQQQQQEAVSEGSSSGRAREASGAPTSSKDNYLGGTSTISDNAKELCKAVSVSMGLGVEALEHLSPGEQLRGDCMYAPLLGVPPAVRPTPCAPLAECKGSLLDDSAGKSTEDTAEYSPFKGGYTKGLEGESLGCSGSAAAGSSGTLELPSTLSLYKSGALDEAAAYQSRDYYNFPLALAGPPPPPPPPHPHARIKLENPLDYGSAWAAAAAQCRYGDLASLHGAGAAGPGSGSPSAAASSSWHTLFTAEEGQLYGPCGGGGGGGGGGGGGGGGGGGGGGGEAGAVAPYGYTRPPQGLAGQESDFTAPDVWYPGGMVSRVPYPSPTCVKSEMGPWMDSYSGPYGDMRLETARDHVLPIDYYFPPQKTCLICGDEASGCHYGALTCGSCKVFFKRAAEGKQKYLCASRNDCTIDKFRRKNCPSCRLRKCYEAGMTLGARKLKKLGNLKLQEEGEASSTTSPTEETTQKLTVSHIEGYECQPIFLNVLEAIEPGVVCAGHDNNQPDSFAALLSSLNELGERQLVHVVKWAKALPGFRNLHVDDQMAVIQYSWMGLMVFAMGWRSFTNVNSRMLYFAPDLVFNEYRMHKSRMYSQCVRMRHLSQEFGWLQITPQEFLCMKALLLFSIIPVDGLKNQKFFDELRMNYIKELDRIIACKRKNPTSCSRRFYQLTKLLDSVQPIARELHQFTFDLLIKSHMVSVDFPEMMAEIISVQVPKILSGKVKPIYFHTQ
Description: Antagonist activity against human androgen receptor expressed in human MDA-MB-453 cells assessed as inhibition of dihydrotestosterone-induced effect by luciferase receptor gene assay

[4] = target: T2, Androgen receptor; assay: biochemical
Description: Displacement of [3H]dihydrotestosterone from human androgen receptor expressed in Sf9 cells

[5] = Metabolic stability assessed as half life in rat liver microsomes at 5 uM; assay type: ADME, Microsome
[6] = Metabolic stability assessed as intrinsic clearance per mg of protein in rat liver microsomes at 5 uM; assay type: ADME, Microsome
[7] = Plasma clearance in Beagle dog at 0.8 mg/kg, iv after 24 hrs; assay type: ADME, organism-based, Canis lupus familiaris; parameters: dose 0.8 mg/kg, route intravenous
[8] = Apparent volume of distribution in Beagle dog at 0.8 mg/kg, iv after 24 hrs; assay type: ADME, organism-based, Canis lupus familiaris; parameters: dose 0.8 mg/kg, route intravenous; conditions: in vivo, read-out: Vdss
[9] = Mean terminal half life in Beagle dog at 0.8 mg/kg, iv after 24 hrs; assay type: ADME, organism-based, Canis lupus familiaris; parameters: dose 0.8 mg/kg, route intravenous; conditions: in vivo, read-out: beta t1/2 (converted)
[10] = tested on: Mus musculus; assay: Activation of hair growth in C3H/HeN mouse hair growth model topically dosed twice daily 5 days per week for 4 weeks; assay type: functional, organism-based
[11] = tested on: Syrian golden hamster; assay: Reduction of sebum ester production in golden syrian hamster ear topically dosed twice daily 5 days per week for two weeks; assay type: functional, Mesocricetus auratus
[12] = tested on: NIH3T3; assay: Phototoxicity in mouse 3T3 cells by neutral red uptake phototoxicity; assay type: cell-based

Row | SMILES | Activity [1] [%] | IC50 [2] [nM] | IC50 [3] [nM] | IC50 [4] [nM] | also measured
1 | N#Cc1ccc(-c2ccccc2O)cc1C(F)(F)F | 86 | – | – | – | –
2 | N#Cc1ccc(C2CCCCC2O)cc1C(F)(F)F (racemic) | – | > 10000 | 90 | 26 | –
3 | N#Cc1ccc([C@H]2CCCC[C@@H]2O)cc1C(F)(F)F | – | – | – | > 3000 | –
4 | CC1(C)C(=O)N(c2ccc(C#N)c(C(F)(F)F)c2)C(=O)N1CCCCO [RU-58841] | 92 | 1000 | – | – | –
5 | N#Cc1ccc([C@@H]2CCCC[C@@H]2O)cc1C(F)(F)F | – | – | – | 1600 | –
6 | COc1cc(-c2ccccc2O)ccc1C#N | 87 | 3250 | 20.1 | 37 | –
7 | N#Cc1ccc(O[C@@H]2CCCC[C@H]2C#N)cc1C(F)(F)F | – | > 10000 | – | – | –
8 | C[C@H](c1ccccc1)N(C)c1cc(C(F)(F)F)c(C#N)cn1 | – | 1660 | – | – | –
9 | N#Cc1ccc([C@H]2CCCC[C@H]2O)cc1C(F)(F)F | 85 | > 10000 | 43 | 37 | half-life at 5 µM [5]: 4 min; microsomal CLint at 5 µM [6]: 350 µL/min/mg; clearance [7]: 40 mL/min/kg; Vd [8]: 6.5 L/kg; half-life [9]: 2.6 h; Activity [10]: Active; ED50 [11]: 0.4%; Activity [12]: Non-toxic
